Experimental data as given in ChEMBL document CHEMBL3792365, “Dioxol and dihydrodioxin analogs of 2- and 3-phenylacetonitriles as potent anti-cancer agents with nanomolar activity against a variety of human cancer cells” (2016).

Experiments:
Assay type in all cases: functional
[1] = Growth inhibition of human SF539 cells at 10 uM after 48 hrs by sulforhodamine B assay; details: SF-539, 48 h, values are per cent of control
[2] = Growth inhibition of human OVCAR8 cells at 10 uM after 48 hrs by sulforhodamine B assay; details: OVCAR-8, 48 h, values are per cent of control
[3] = Growth inhibition of human UACC62 cells at 10 uM after 48 hrs by sulforhodamine B assay; details: UACC-62, 48 h, values are per cent of control
A498 = test: Growth inhibition of human A498 cells at 10 uM after 48 hrs by sulforhodamine B assay; details: A498, 48 h, values are per cent of control
[4] = Growth inhibition of human HCT116 cells at 10 uM after 48 hrs by sulforhodamine B assay; details: HCT-116, 48 h, values are per cent of control
[5] = Growth inhibition of human LOXIMVI cells at 10 uM after 48 hrs by sulforhodamine B assay; details: LOX IMVI, values are per cent of control
SK-MEL-5 = test: Growth inhibition of human SK-MEL-5 cells at 10 uM after 48 hrs by sulforhodamine B assay; details: SK-MEL-5, 48 h, values are per cent of control
NCI-H322M = test: Growth inhibition of human NCI-H322M cells at 10 uM after 48 hrs by sulforhodamine B assay; details: values are per cent of control
NCI-H226 = test: Growth inhibition of human NCI-H226 cells at 10 uM after 48 hrs by sulforhodamine B assay; details: NCI-H226, 48 h, values are per cent of control
[6] = Growth inhibition of human Caki1 cells at 10 uM after 48 hrs by sulforhodamine B assay; details: CAKI-1, 48 h, values are per cent of control
[7] = Growth inhibition of human HCT15 cells at 10 uM after 48 hrs by sulforhodamine B assay; details: HCT-15, 48 h, values are per cent of control
M14 = test: Growth inhibition of human M14 cells at 10 uM after 48 hrs by sulforhodamine B assay; details: M14, 48 h, values are per cent of control
ACHN = test: Growth inhibition of human ACHN cells at 10 uM after 48 hrs by sulforhodamine B assay; details: values are per cent of control
[8] = Growth inhibition of human BT549 cells at 10 uM after 48 hrs by sulforhodamine B assay; details: BT-549, 48 h, values are per cent of control
[9] = Growth inhibition of human SW620 cells at 10 uM after 48 hrs by sulforhodamine B assay; details: SW-620, 48 h, values are per cent of control
SR = test: Growth inhibition of human SR cells at 10 uM after 48 hrs by sulforhodamine B assay; details: values are per cent of control
NCI-H460 = test: Growth inhibition of human NCI-H460 cells at 10 uM after 48 hrs by sulforhodamine B assay; details: NCI-H460, 48 h, values are per cent of control
[10] = Growth inhibition of human OVCAR4 cells at 10 uM after 48 hrs by sulforhodamine B assay; details: OVCAR-4, 48 h, values are per cent of control
[11] = Growth inhibition of human HOP62 cells at 10 uM after 48 hrs by sulforhodamine B assay; details: HOP-62, 48 h, values are per cent of control
SN12C = test: Growth inhibition of human SN12C cells at 10 uM after 48 hrs by sulforhodamine B assay; details: values are per cent of control
KM12 = test: Growth inhibition of human KM12 cells at 10 uM after 48 hrs by sulforhodamine B assay; details: KM12, 48 h, values are per cent of control
[12] = Growth inhibition of human UO31 cells at 10 uM after 48 hrs by sulforhodamine B assay; details: UO-31, 48 h, values are per cent of control
786-0 = test: Growth inhibition of human 786-0 cells at 10 uM after 48 hrs by sulforhodamine B assay; details: 786-0, 48 h, values are per cent of control
SK-MEL-2 = test: Growth inhibition of human SK-MEL-2 cells at 10 uM after 48 hrs by sulforhodamine B assay; details: SK-MEL-2, 48 h, values are per cent of control
MDA-MB-231 = test: Growth inhibition of human MDA-MB-231 cells at 10 uM after 48 hrs by sulforhodamine B assay; details: MDA-MB-231, 48 h, values are per cent of control
[13] = Growth inhibition of human Hs 578T cells at 10 uM after 48 hrs by sulforhodamine B assay; details: values are per cent of control
A549 = test: Growth inhibition of human A549/ATCC cells at 10 uM after 48 hrs by sulforhodamine B assay; details: A549, 48 h, values are per cent of control
[14] = Growth inhibition of human OVCAR5 cells at 10 uM after 48 hrs by sulforhodamine B assay; details: OVCAR-5, 48 h, values are per cent of control
[15] = Growth inhibition of human SF295 cells at 10 uM after 48 hrs by sulforhodamine B assay; details: SF-295, 48 h, values are per cent of control
[16] = Growth inhibition of human RXF393 cells at 10 uM after 48 hrs by sulforhodamine B assay; details: RXF 393, 48 h, values are per cent of control
[17] = Growth inhibition of human IGROV1 cells at 10 uM after 48 hrs by sulforhodamine B assay; details: IGROV-1, 48 h, values are per cent of control
SK-MEL-28 = test: Growth inhibition of human SK-MEL-28 cells at 10 uM after 48 hrs by sulforhodamine B assay; details: SK-MEL-28, 48 h, values are per cent of control
[18] = Growth inhibition of human SNB19 cells at 10 uM after 48 hrs by sulforhodamine B assay; details: SNB-19, 48 h, values are per cent of control
NCI-H23 = test: Growth inhibition of human NCI-H23 cells at 10 uM after 48 hrs by sulforhodamine B assay; details: NCI-H23, 48 h, values are per cent of control
[19] = Growth inhibition of human SNB75 cells at 10 uM after 48 hrs by sulforhodamine B assay; details: SNB-75, 48 h, values are per cent of control
[20] = Growth inhibition of human DU145 cells at 10 uM after 48 hrs by sulforhodamine B assay; details: DU-145, 48 h, values are per cent of control
HT-29 = test: Growth inhibition of human HT-29 cells at 10 uM after 48 hrs by sulforhodamine B assay; details: HT-29, 48 h, values are per cent of control
[21] = Growth inhibition of human COLO205 cells at 10 uM after 48 hrs by sulforhodamine B assay; details: COLO 205, 48 h, values are per cent of control
K562 = test: Growth inhibition of human K562 cells at 10 uM after 48 hrs by sulforhodamine B assay; details: K562, 48 h, values are per cent of control
MDA-MB-435 = test: Growth inhibition of human MDA-MB-435 cells at 10 uM after 48 hrs by sulforhodamine B assay; details: MDA-MB-435, 48 h, values are per cent of control

SMILES	growth, % of control at 10 µM [1] [%]	growth, % of control at 10 µM [2] [%]	growth, % of control at 10 µM [3] [%]	growth, % of control at 10 µM (A498) [%]	growth, % of control at 10 µM [4] [%]	growth, % of control at 10 µM [5] [%]	growth, % of control at 10 µM (SK-MEL-5) [%]	growth, % of control at 10 µM (NCI-H322M) [%]	growth, % of control at 10 µM (NCI-H226) [%]	growth, % of control at 10 µM [6] [%]	growth, % of control at 10 µM [7] [%]	growth, % of control at 10 µM (M14) [%]	growth, % of control at 10 µM (ACHN) [%]	growth, % of control at 10 µM [8] [%]	growth, % of control at 10 µM [9] [%]	growth, % of control at 10 µM (SR) [%]	growth, % of control at 10 µM (NCI-H460) [%]	growth, % of control at 10 µM [10] [%]	growth, % of control at 10 µM [11] [%]	growth, % of control at 10 µM (SN12C) [%]	other results
COc1cc(/C=C(\C#N)c2ccc3c(c2)OCO3)cc(OC)c1OC	92.4	96.3	87.6	81.8	99.4	109	92.2	104	101	86.6	85.7	95	96	82.1	98.9	83.5	107	89.2	92.2	95.4	growth, % of control at 10 µM (KM12): 93.8%; growth, % of control at 10 µM [12]: 67.1%; growth, % of control at 10 µM (786-0): 96.5%; growth, % of control at 10 µM (SK-MEL-2): 90.2%; growth, % of control at 10 µM (MDA-MB-231): 88.2%; growth, % of control at 10 µM [13]: 100%; growth, % of control at 10 µM (A549): 93.6%; growth, % of control at 10 µM [14]: 99.7%; growth, % of control at 10 µM [15]: 96.1%; growth, % of control at 10 µM [16]: 100%; growth, % of control at 10 µM [17]: 95.3%; growth, % of control at 10 µM (SK-MEL-28): 97.6%; growth, % of control at 10 µM [18]: 93.8%; growth, % of control at 10 µM (NCI-H23): 94.5%; growth, % of control at 10 µM [19]: 114%; growth, % of control at 10 µM [20]: 107%; growth, % of control at 10 µM (HT-29): 88.8%; growth, % of control at 10 µM [21]: 104%; growth, % of control at 10 µM (K562): 80.4%; growth, % of control at 10 µM (MDA-MB-435): 74.7%
N#C/C(=C\c1ccc2ccccc2n1)c1ccc2c(c1)OCO2	69.6	60.8	86.8	54.1	20.5	59.5	95.3	66.6	70.8	76	79.7	90.3	41.4	86.1	89.9	60.5	24.7	45	69.7	73	growth, % of control at 10 µM (KM12): 86.8%; growth, % of control at 10 µM [12]: 72.8%; growth, % of control at 10 µM (786-0): 51.9%; growth, % of control at 10 µM (SK-MEL-2): 87.1%; growth, % of control at 10 µM (MDA-MB-231): 50.2%; growth, % of control at 10 µM [13]: 34.8%; growth, % of control at 10 µM (A549): 56.8%; growth, % of control at 10 µM [14]: 81.1%; growth, % of control at 10 µM [15]: 64%; growth, % of control at 10 µM [16]: 80%; growth, % of control at 10 µM [17]: 55.1%; growth, % of control at 10 µM (SK-MEL-28): 88.6%; growth, % of control at 10 µM [18]: 34.7%; growth, % of control at 10 µM (NCI-H23): 58.8%; growth, % of control at 10 µM [19]: 5.4%; growth, % of control at 10 µM [20]: 81.3%; growth, % of control at 10 µM (HT-29): 71.9%; growth, % of control at 10 µM [21]: 104%; growth, % of control at 10 µM (K562): 70.3%; growth, % of control at 10 µM (MDA-MB-435): 48.3%
